# According to US20260069588A1, “VEPDEGESTRANT FOR USE IN TREATING CANCER” (Arvinas Operation, Inc., priority 2022, published 2026):
# Assay: Phase 1 single agent studies in Japanese and Chinese participants (C4891016, C4891018): adverse events
# [1] = TEAE treatment related, 200 mg, N = 15
# Excerpt: TEAE's from participants in both studies have been combined and are described below.
compound,measurement,setting,value
"O=C1CC[C@H](N2Cc3cc(N4CCN(CC5CCN(c6ccc([C@@H]7c8ccc(O)cc8CC[C@@H]7c7ccccc7)cc6)CC5)CC4)ccc3C2=O)C(=O)N1 [Compound A, (S)-3-(5-(4-((1-(4-((1R,2S)-6-hydroxy-2-phenyl-1,2,3,4-tetrahydronaphthalen-1-yl)phenyl)piperidin-4-yl)methyl)piperazin-1-yl)-1-oxoisoindolin-2-yl)piperidine-2,6-dione]","Gastrointestinal disorders, Grade 3",[1],0 n (%)
same,"Gastrointestinal disorders, Grade 4",[1],0 n (%)
same,"Gastrointestinal disorders, Grade 5",[1],0 n (%)
same,"Gastrointestinal disorders, Missing or Unknown",[1],0 n (%)
same,"Gastrointestinal disorders, Total",[1],4 (26.7) n (%)
same,"General disorders and administration site conditions, Grade 1",[1],0 n (%)
same,"General disorders and administration site conditions, Grade 2",[1],1 (6.7) n (%)
same,"General disorders and administration site conditions, Grade 3",[1],0 n (%)
same,"General disorders and administration site conditions, Grade 4",[1],0) n (%)
same,"General disorders and administration site conditions, Grade 5",[1],0 n (%)
same,"General disorders and administration site conditions, Missing or Unknown",[1],0 n (%)
same,"General disorders and administration site conditions, Total",[1],1 (6.7) n (%)
same,"Headache, Grade 1",[1],1 (6.7) n (%)
same,"Headache, Grade 2",[1],0 n (%)
same,"Headache, Grade 3",[1],0 n (%)
same,"Headache, Grade 4",[1],0 n (%)
same,"Headache, Grade 5",[1],0 n (%)
same,"Headache, Missing or Unknown",[1],0 n (%)
same,"Headache, Total",[1],1 (6.7) n (%)
same,"Hyperuricemia, Grade 1",[1],2 (13.3) n (%)
same,"Hyperuricemia, Grade 2",[1],0 n (%)
same,"Hyperuricemia, Grade 3",[1],0 n (%)
same,"Hyperuricemia, Grade 4",[1],0 n (%)
same,"Hyperuricemia, Grade 5",[1],0 n (%)
same,"Hyperuricemia, Missing or Unknown",[1],0 n (%)
same,"Hyperuricemia, Total",[1],2 (13.3) n (%)
same,"Hypokalemia, Grade 1",[1],1 (6.7) n (%)
same,"Hypokalemia, Grade 2",[1],0 n (%)
same,"Hypokalemia, Grade 3",[1],0 n (%)
same,"Hypokalemia, Grade 4",[1],0 n (%)
same,"Hypokalemia, Grade 5",[1],0 n (%)
same,"Hypokalemia, Missing or Unknown",[1],0 n (%)
same,"Hypokalemia, Total",[1],1 (6.7) n (%)
same,"Hypophosphatasemia, Grade 1",[1],1 (6.7) n (%)
same,"Hypophosphatasemia, Grade 2",[1],0 n (%)
same,"Hypophosphatasemia, Grade 3",[1],0 n (%)
same,"Hypophosphatasemia, Grade 4",[1],0 n (%)
same,"Hypophosphatasemia, Grade 5",[1],0 n (%)
same,"Hypophosphatasemia, Missing or Unknown",[1],0 n (%)
same,"Hypophosphatasemia, Total",[1],1 (6.7) n (%)
same,"Investigations, Grade 1",[1],4 (26.7) n (%)
same,"Investigations, Grade 2",[1],1 (6.7) n (%)
same,"Investigations, Grade 3",[1],2 (13.3) n (%)
same,"Investigations, Grade 4",[1],0 n (%)
same,"Investigations, Grade 5",[1],0 n (%)
same,"Investigations, Missing or Unknown",[1],0 n (%)
same,"Investigations, Total",[1],7 (46.7) n (%)
same,"Metabolism and nutrition disorders, Grade 1",[1],3 (20.0) n (%)
same,"Metabolism and nutrition disorders, Grade 2",[1],0 n (%)
same,"Metabolism and nutrition disorders, Grade 3",[1],0 n (%)
same,"Metabolism and nutrition disorders, Grade 4",[1],0 n (%)
same,"Metabolism and nutrition disorders, Grade 5",[1],0) n (%)
same,"Metabolism and nutrition disorders, Missing or Unknown",[1],0 n (%)
same,"Metabolism and nutrition disorders, Total",[1],3 (20.0) n (%)
same,"Musculoskeletal and connective tissue disorders, Grade 1",[1],1 (6.7) n (%)
same,"Musculoskeletal and connective tissue disorders, Grade 2",[1],0) n (%)
same,"Musculoskeletal and connective tissue disorders, Grade 3",[1],0 n (%)
same,"Musculoskeletal and connective tissue disorders, Grade 4",[1],0 n (%)
same,"Musculoskeletal and connective tissue disorders, Grade 5",[1],0 n (%)
same,"Musculoskeletal and connective tissue disorders, Missing or Unknown",[1],0 n (%)
same,"Musculoskeletal and connective tissue disorders, Total",[1],1 (6.7) n (%)
same,"Nausea, Grade 1",[1],1 (6.7) n (%)
same,"Nausea, Grade 2",[1],0 n (%)
same,"Nausea, Grade 3",[1],0 n (%)
same,"Nausea, Grade 4",[1],0 n (%)
same,"Nausea, Grade 5",[1],0 n (%)
same,"Nausea, Missing or Unknown",[1],0 n (%)
same,"Nausea, Total",[1],1 (6.7) n (%)
same,"Nervous system disorders, Grade 1",[1],2 (13.3) n (%)
same,"Nervous system disorders, Grade 2",[1],0 n (%)
same,"Nervous system disorders, Grade 3",[1],0 n (%)
same,"Nervous system disorders, Grade 4",[1],0 n (%)
same,"Nervous system disorders, Grade 5",[1],0 n (%)
same,"Nervous system disorders, Missing or Unknown",[1],0 n (%)
same,"Nervous system disorders, Total",[1],2 (13.3) n (%)
same,"Neutrophil count decreased, Grade 1",[1],1 (6.7) n (%)
same,"Neutrophil count decreased, Grade 2",[1],0 n (%)
same,"Neutrophil count decreased, Grade 3",[1],1 (6.7) n (%)
same,"Neutrophil count decreased, Grade 4",[1],0 n (%)
same,"Neutrophil count decreased, Grade 5",[1],0 n (%)
same,"Neutrophil count decreased, Missing or Unknown",[1],0 n (%)
same,"Neutrophil count decreased, Total",[1],2 (13.3) n (%)
same,"Pain, Grade 1",[1],0 n (%)
same,"Pain, Grade 2",[1],1 (6.7) n (%)
same,"Pain, Grade 3",[1],0 n (%)
same,"Pain, Grade 4",[1],0 n (%)
same,"Pain, Grade 5",[1],0 n (%)
same,"Pain, Missing or Unknown",[1],0 n (%)
same,"Pain, Total",[1],1 (6.7) n (%)
same,"Participants with events, Grade 1",[1],7 (46.7) n (%)
same,"Participants with events, Grade 2",[1],2 (13.3) n (%)
same,"Participants with events, Grade 3",[1],2 (13.3) n (%)
same,"Participants with events, Grade 4",[1],0 n (%)
same,"Participants with events, Grade 5",[1],0 n (%)
same,"Participants with events, Missing or Unknown",[1],0 n (%)
same,"Participants with events, Total",[1],11 (73.3) n (%)
same,"Platelet count decreased, Grade 1",[1],1 (6.7) n (%)
same,"Platelet count decreased, Grade 2",[1],0 n (%)
same,"Platelet count decreased, Grade 3",[1],0 n (%)
same,"Platelet count decreased, Grade 4",[1],0 n (%)
same,"Platelet count decreased, Grade 5",[1],0) n (%)
same,"Platelet count decreased, Missing or Unknown",[1],0 n (%)
same,"Platelet count decreased, Total",[1],1 (6.7) n (%)
same,"Pruritus, Grade 1",[1],1 (6.7) n (%)
same,"Pruritus, Grade 2",[1],0 n (%)
same,"Pruritus, Grade 3",[1],0 n (%)
same,"Pruritus, Grade 4",[1],0) n (%)
same,"Pruritus, Grade 5",[1],0 n (%)
same,"Pruritus, Missing or Unknown",[1],0 n (%)
same,"Pruritus, Total",[1],1 (6.7) n (%)
same,"Sinus bradycardia, Grade 1",[1],1 (6.7) n (%)
same,"Sinus bradycardia, Grade 2",[1],0 n (%)
same,"Sinus bradycardia, Grade 3",[1],0 n (%)
same,"Sinus bradycardia, Grade 4",[1],0 n (%)
same,"Sinus bradycardia, Grade 5",[1],0 n (%)
same,"Sinus bradycardia, Missing or Unknown",[1],0 n (%)
same,"Sinus bradycardia, Total",[1],1 (6.7) n (%)
same,"Skin and subcutaneous tissue disorders, Grade 1",[1],2 (13.3) n (%)
same,"Skin and subcutaneous tissue disorders, Grade 2",[1],0 n (%)
same,"Skin and subcutaneous tissue disorders, Grade 3",[1],0 n (%)
same,"Skin and subcutaneous tissue disorders, Grade 4",[1],0 n (%)
same,"Skin and subcutaneous tissue disorders, Grade 5",[1],0 n (%)
same,"Skin and subcutaneous tissue disorders, Missing or Unknown",[1],0 n (%)
same,"Skin and subcutaneous tissue disorders, Total",[1],2 (13.3) n (%)
same,"White blood cell count decreased, Grade 1",[1],0 n (%)
same,"White blood cell count decreased, Grade 2",[1],0 n (%)
same,"White blood cell count decreased, Grade 3",[1],1 (6.7) n (%)
same,"White blood cell count decreased, Grade 4",[1],0 n (%)
same,"White blood cell count decreased, Grade 5",[1],0 n (%)
same,"White blood cell count decreased, Missing or Unknown",[1],0 n (%)
same,"White blood cell count decreased, Total",[1],1 (6.7) n (%)
same,discontinuations due to TEAE,in vivo,No discontinuations reported due to TEAE
